Experimental data: patent publication EP0489404A2, “Method of treating shock using a potassium channel activator” (E.R. SQUIBB & SONS, INC., priority 1990, dated 1992)
pIC50: −log10 of the molar value.

How the values were obtained:
[1] = test system: Ischemic Isolated Rat Heart; experiment: Globally ischemic isolated perfused rat heart (Langendorff), protective effect; set-up: species or system Male Sprague-Dawley rats; LDH (Lactate Dehydrogenase Release), Reperfusion (Post-Ischemic Event): unit not given here; conditions: 10 µM; for FLOW (coronary flow), Pre-ischemic Event (Post Drug) / HR (Heart Rate), Pre-ischemic Event (Post Drug) / LVDP (Left Ventricular Developed Pressure), Pre-ischemic Event (Post Drug): after 10 minutes drug treatment, n = 4; for FLOW (coronary flow), Pre-ischemic Event (Post Drug) / HR (Heart Rate), Pre-ischemic Event (Post Drug) / LVDP (Left Ventricular Developed Pressure), Pre-ischemic Event (Post Drug) / DP (Double Product), Pre-ischemic Event (Post Drug): before ischemia; for DP (Double Product), Pre-ischemic Event (Post Drug) / DP (Double Product), Reperfusion (Post-Ischemic Event): HR x LVDP divided by 1000; for DP (Double Product), Pre-ischemic Event (Post Drug): lower = more cardiodepressant; for FLOW (coronary flow), Reperfusion (Post-Ischemic Event) / HR (Heart Rate), Reperfusion (Post-Ischemic Event) / LVDP (Left Ventricular Developed Pressure), Reperfusion (Post-Ischemic Event) / DP (Double Product), Reperfusion (Post-Ischemic Event) / LDH (Lactate Dehydrogenase Release), Reperfusion (Post-Ischemic Event): occlusion 25 minutes, reperfusion 30 minutes; for DP (Double Product), Reperfusion (Post-Ischemic Event): higher = more cardioprotective; for LDH (Lactate Dehydrogenase Release), Reperfusion (Post-Ischemic Event): lower = greater cardioprotection
Description: Grover et al., "Dissociation of Cardiodepression from Cardioprotection with Calcium Antagonists: Diltiazem Protects Ischemic Rat Myocardium with a Lower Functional Cost as Compared with Verapamil and Nifedipine", Journal of Cardiovascular Pharmacology; pages 331-340, Vol. 14, No. 2 (1989), describe a model for testing globally ischemic, isolated rat hearts. This model is expected to be a reliable indicator of protection since the laboratory-induced isolation and ischemic event including perfusion with a cardioplegic solution, reasonably duplicates the environment and conditions for the heart during and after a shock or trauma episode. Grover et al. express the efficacy of protective agents as the amount of lactate dehydrogenase (LDH) release and post-ischemic cardiac function. Lactate dehydrogenase is an enzyme released in the heart during an ischemic event and is an index of cardiac cell necrosis. In the Grover et al. model, this is measured during reperfusion and an agent which provides for lower release levels of LDH is considered to offer greater cardioprotection since lower LDH indicates a smaller infarct size. Cardiac function is determined using the double product (DP) of heart rate times the left ventricular developed pressure (LVDP) divided by 1,000.
The lower the value for DP before the ischemic isolation of the heart for a given agent, the more cardiodepressant it is considered to be and the higher the value of DP is during reperfusion, the more cardioprotective the agent is.
Male Sprague-Dawley rats (450-550 g) were used in all experiments. The rats were anesthetized using 30 mg/kg sodium pentobarbital (i.p.). They were intubated and then treated with i.v. heparin (1000 U/kg). While being mechanically ventilated, their hearts were perfused in situ via retrograde cannulation of the aorta. The hearts were then excised and quickly moved to a Langendorff apparatus where they were perfused with Krebs-Henseleit bicarbonate buffer (112 mM […], 25 mM NaHCO₃, 5 mM KCl, 1.2 mM MgSO₄, 1 mM KH₂PO₄, 1.25 mM CaCl₂, 11.5 mM dextrose, and 2 mM pyruvate bubbled with 95% O₂ - 5% CO₂) at a constant pressure (75 mm Hg). A water filled latex balloon attached to a metal cannula was then inserted into the left ventricle and connected to a Statham pressure transducer for measurement of left ventricular pressure. The hearts were allowed to equilibrate for 15 minutes at which time end diastolic pressure (EDP) was adjusted to 5 mm Hg and this was maintained for 5 minutes. Pre-ischemia or pre-drug function, heart rate and coronary flow (extracorporeal electromagnetic flow probe, Carolina Medical Electronics, King, N.C.) were then measured. Cardiac function was determined using the double product of heart rate (HR) X left ventricular developed pressure (LVDP) divided by 1000. Cardiac temperature was maintained throughout the experiment by submerging the hearts in 37°C buffer which was allowed to accumulate in a stoppered, heated chamber.
Once the baseline measurements were taken, the hearts were treated with 10 µM cromakalim, compounds C', C'', E', E'', F', F'' (n = 4 each) or with vehicle buffer (0.01% DMSO, n = 7). All of these hearts were treated with their respective drugs or vehicle for ten minutes. At this time, post-drug cardiac function and flow were measured and then the hearts were made globally ischemic by shutting off the buffer perfusion. The ischemia was maintained for 25 minutes, the hearts were then reperfused with nondrug treated buffer. Reperfusion was maintained for a total of 30 minutes and at this time reperfusion function and flow were again determined.

rat aorta = experiment: Inhibition of agonist-induced constriction in rat aorta (vasodilation, non-ischemic tissue); conditions: concentration inhibiting agonist-induced constriction by 50 percent, normal
Description: Also included in the TABLE are the IC₅₀(m) values for rat aorta. The IC₅₀ (rat aorta) value is the concentration of the particular compound which inhibits agonist-induced constriction in rat aorta by 50 percent. Thus, the lower values indicate greater vasodilation and it should be noted that these values are for normal, i.e., non-ischemic, tissue. It can be seen that cromakalim with an IC₅₀ of 5.7 x 10⁻⁸ m is a relatively potent vasodilator in non-ischemic tissue.

Structure (SMILES) | FLOW (coronary flow), Pre-ischemic Event (Post Drug) [1] | HR (Heart Rate), Pre-ischemic Event (Post Drug) [1] | LVDP (Left Ventricular Developed Pressure), Pre-ischemic Event (Post Drug) [1] | DP (Double Product), Pre-ischemic Event (Post Drug) [1] | FLOW (coronary flow), Reperfusion (Post-Ischemic Event) [1] | HR (Heart Rate), Reperfusion (Post-Ischemic Event) [1] | LVDP (Left Ventricular Developed Pressure), Reperfusion (Post-Ischemic Event) [1] | DP (Double Product), Reperfusion (Post-Ischemic Event) [1] | LDH (Lactate Dehydrogenase Release), Reperfusion (Post-Ischemic Event) [1] | pIC50 (rat aorta) | further results
CC1(C)Oc2ccc(C#N)cc2[C@@H](NC(=NC#N)Nc2ccccc2)[C@@H]1O [C'"] | 15.2 | 244 beats/min | 134 mmHg | 32.7 | 13.2 | 244 beats/min | 74 mmHg | 18.2 | 10.41 | 5.86 | FLOW (coronary flow), Pre-ischemic Event (Post Drug) ([1]; listed as C"): 20.4; HR (Heart Rate), Pre-ischemic Event (Post Drug) ([1]; listed as C"): 250 beats/min; LVDP (Left Ventricular Developed Pressure), Pre-ischemic Event (Post Drug) ([1]; listed as C"): 121 mmHg; DP (Double Product), Pre-ischemic Event (Post Drug) ([1]; listed as C"): 29.8; DP (Double Product), Reperfusion (Post-Ischemic Event) ([1]; listed as C"): 14.8; FLOW (coronary flow), Reperfusion (Post-Ischemic Event) ([1]; listed as C"): 10.1; HR (Heart Rate), Reperfusion (Post-Ischemic Event) ([1]; listed as C"): 240 beats/min; LVDP (Left Ventricular Developed Pressure), Reperfusion (Post-Ischemic Event) ([1]; listed as C"): 62 mmHg; LDH (Lactate Dehydrogenase Release), Reperfusion (Post-Ischemic Event) ([1]; listed as C"): 9.88; pIC50 (rat aorta; listed as C"): 6.35
CC1(C)Oc2ccc(C#N)cc2C(N2CCCC2=O)C1O (stereo not shown) [Cromakalim, cromakalim, reference compound] | 23.9 | 250 beats/min | 131 mmHg | 33.0 | 13.9 | 234 beats/min | 87 mmHg | 20.5 | 8.89 |  | pIC50 (rat aorta; Rattus norvegicus): 7.24
CC1(C)Oc2ccc(C#N)cc2[C@@H](NC(=S)Nc2ccccc2)[C@@H]1O [E'] | 15.3 | 236 beats/min | 141 mmHg | 32.75 | 13.4 | 229 beats/min | 55 mmHg | 14.83 | 13.46 | 5.77 | FLOW (coronary flow), Pre-ischemic Event (Post Drug) ([1]; listed as E"): 24.8; HR (Heart Rate), Pre-ischemic Event (Post Drug) ([1]; listed as E"): 234 beats/min; LVDP (Left Ventricular Developed Pressure), Pre-ischemic Event (Post Drug) ([1]; listed as E"): 128 mmHg; DP (Double Product), Pre-ischemic Event (Post Drug) ([1]; listed as E"): 30.06; DP (Double Product), Reperfusion (Post-Ischemic Event) ([1]; listed as E"): 18.52; FLOW (coronary flow), Reperfusion (Post-Ischemic Event) ([1]; listed as E"): 17.56; HR (Heart Rate), Reperfusion (Post-Ischemic Event) ([1]; listed as E"): 230 beats/min; LVDP (Left Ventricular Developed Pressure), Reperfusion (Post-Ischemic Event) ([1]; listed as E"): 81 mmHg; LDH (Lactate Dehydrogenase Release), Reperfusion (Post-Ischemic Event) ([1]; listed as E"): 8.77; pIC50 (rat aorta; listed as E"): 6.09
CC1(C)Oc2ccc(C#N)cc2[C@@H](NC(=NC#N)Oc2ccccc2)[C@@H]1O [F'] | 16.0 | 238 beats/min | 128 mmHg | 30.5 | 10.4 | 212 beats/min | 28 mmHg | 6.2 | 21.7 | < 4.00 | FLOW (coronary flow), Pre-ischemic Event (Post Drug) ([1]; listed as F"): 28.3; HR (Heart Rate), Pre-ischemic Event (Post Drug) ([1]; listed as F"): 239 beats/min; LVDP (Left Ventricular Developed Pressure), Pre-ischemic Event (Post Drug) ([1]; listed as F"): 159 mmHg; DP (Double Product), Pre-ischemic Event (Post Drug) ([1]; listed as F"): 38.02; DP (Double Product), Reperfusion (Post-Ischemic Event) ([1]; listed as F"): 14.72; FLOW (coronary flow), Reperfusion (Post-Ischemic Event) ([1]; listed as F"): 13.92; HR (Heart Rate), Reperfusion (Post-Ischemic Event) ([1]; listed as F"): 247 beats/min; LVDP (Left Ventricular Developed Pressure), Reperfusion (Post-Ischemic Event) ([1]; listed as F"): 59 mmHg; LDH (Lactate Dehydrogenase Release), Reperfusion (Post-Ischemic Event) ([1]; listed as F"): 10.65; pIC50 (rat aorta; listed as F"): 5.31
